Laboratory results published in patent US20090124691A1, “INHIBITOR OF INCREASE IN POSTPRANDIAL BLOOD INSULIN LEVEL” (Kao Corporation, priority 2006, published 2009).

Tested on: blood insulin level
Test: Effect of monoacylglycerol in inhibiting postprandial increase in blood insulin level in mouse (oral emulsion, ELISA, AUC)
Assay type: in vivo, Male C57BL/6J mice
Conditions: mice, TAG compared with only glucose, MAG in an amount of 1/10 or 1/5 of that of TAG compared with TAG/MAG0 group
Procedure: Triolein was employed as a triacylglycerol, and 1-monoolein was employed as a monoacylglycerol.
Male C57BL/6J mice (eight weeks old) were divided into groups (eight mice each). Through a probe, mice of the respective groups were orally administered the following substance: only glucose (2 mg/g-body weight) (Glucose); glucose (2 mg/g-body weight) plus triolein (TAG) (2 mg/g-body weight) emulsified with egg yolk lecithin (0.02 mg/g-body weight) (TAG/MAGO); TAG/MAGO supplemented with 1-monoolein (MAG) of 0.08, 0.2 and 0.4 mg/g-body weight, respectively (TAG/MAG1, TAG/MAG2 and TAG/MAG3). […] Blood was collected from the orbital vein of each mouse over time until 30 minutes after oral administration, and blood insulin level was measured, followed by calculation of the area under the curve (AUC) of a graph. Blood insulin level was measured through ELISA (insulin assay kit, product of Morinaga Institute of Biological Science, Inc.).

CCCCCCCC/C=C\CCCCCCCC(=O)OCC(O)CO (stereo not shown) [MAG, 1-monoolein]
postprandial blood insulin level (amount of postprandial insulin secretion), result in words: decreased postprandial blood insulin level
